Source: ChEMBL document CHEMBL1126009, “Synthesis and biological activities of fatty acid conjugates of a cyclic lactam alpha-melanotropin” (1992)

Assays:
[1] = system: lizard; assay: […] activity in lizard skin (10e-9 M) bioassay, compared to the half-maximal effective dose of alpha-MSH (1.0); response is prolonged (+).; format: functional
[2] = system: S91; assay: […] potency was measured as the minimal effective dose required to elicit the response relative to alpha-MSH(1.0) by using melanoma tyrosinase bioassay; response is somewhat prolonged (+/-).; format: functional, Mus musculus
[3] = system: lizard; assay: […] activity in lizard skin (10e-9 M) bioassay, compared to the half-maximal effective dose of alpha-MSH (1.0); response is not prolonged (-).; format: functional
[4] = system: S91; assay: […] potency was measured as the minimal effective dose required to elicit the response relative to alpha-MSH(1.0) by using melanoma tyrosinase bioassay; response is prolonged (+).range=10-100; format: functional, Mus musculus
[5] = system: S91; assay: […] potency was measured as the minimal effective dose required to elicit the response relative to alpha-MSH(1.0) by using melanoma tyrosinase bioassay; response is prolonged (+).range =10-100; format: functional, Mus musculus

Structure (SMILES): CCCCCCCCCCCCCC(=O)NC1CC(=O)NCCCC[C@@H](C(N)=O)NC(=O)[C@H](Cc2c[nH]c3ccccc23)NC(=O)[C@@H](CCCN=C(N)N)NC(=O)[C@H](Cc2ccccc2)NC(=O)[C@@H](Cc2c[nH]cn2)NC1=O (some centres not stated)
- Melanotropic activity [1]: 0.01

Structure (SMILES): CCCCCCCCCCCCCCCC(=O)NC1CC(=O)NCCCC[C@@H](C(N)=O)NC(=O)[C@H](Cc2c[nH]c3ccccc23)NC(=O)[C@@H](CCCN=C(N)N)NC(=O)[C@H](Cc2ccccc2)NC(=O)[C@@H](Cc2c[nH]cn2)NC1=O (some centres not stated)
- Melanotropic activity [1]: 0.01

Structure (SMILES): CCCCCC(=O)N[C@H]1CC(=O)NCCCC[C@@H](C(N)=O)NC(=O)[C@H](Cc2c[nH]c3ccccc23)NC(=O)[C@@H](CCCN=C(N)N)NC(=O)[C@H](Cc2ccccc2)NC(=O)[C@@H](Cc2c[nH]cn2)NC1=O
- Melanotropic activity [1]: 1

Structure (SMILES): CC(=O)N[C@H]1CC(=O)NCCCC[C@@H](C(N)=O)NC(=O)[C@H](Cc2c[nH]c3ccccc23)NC(=O)[C@H](CCCN=C(N)N)NC(=O)[C@@H](Cc2ccccc2)NC(=O)[C@H](Cc2c[nH]cn2)NC1=O
- Melanotropic potency [2]: 1

Structure (SMILES): CCCCCCCCCC(=O)NC1CC(=O)NCCCC[C@@H](C(N)=O)NC(=O)[C@H](Cc2c[nH]c3ccccc23)NC(=O)[C@@H](CCCN=C(N)N)NC(=O)[C@H](Cc2ccccc2)NC(=O)[C@@H](Cc2c[nH]cn2)NC1=O (some centres not stated)
- Melanotropic activity [1]: 1

Structure (SMILES): CC(=O)N[C@H]1CC(=O)NCCCC[C@@H](C(N)=O)NC(=O)[C@H](Cc2c[nH]c3ccccc23)NC(=O)[C@@H](CCCN=C(N)N)NC(=O)[C@@H](Cc2ccccc2)NC(=O)[C@@H](Cc2c[nH]cn2)NC1=O
- Melanotropic activity [3]: 1

Structure (SMILES): NC(=O)[C@@H]1CCCCNC(=O)C[C@H](N)C(=O)N[C@H](Cc2c[nH]cn2)C(=O)N[C@H](Cc2ccccc2)C(=O)N[C@H](CCCN=C(N)N)C(=O)N[C@@H](Cc2c[nH]c3ccccc23)C(=O)N1
- Melanotropic activity [3]: 0.2

Structure (SMILES): CCCCCCCCCC(=O)N[C@H]1CC(=O)NCCCC[C@@H](C(N)=O)NC(=O)[C@H](Cc2c[nH]c3ccccc23)NC(=O)[C@H](CCCN=C(N)N)NC(=O)[C@@H](Cc2ccccc2)NC(=O)[C@H](Cc2c[nH]cn2)NC1=O
- Melanotropic potency [4]: 100

Structure (SMILES): NC(=O)[C@@H]1CCCCNC(=O)C[C@H](N)C(=O)N[C@@H](Cc2c[nH]cn2)C(=O)N[C@H](Cc2ccccc2)C(=O)N[C@@H](CCCN=C(N)N)C(=O)N[C@@H](Cc2c[nH]c3ccccc23)C(=O)N1
- Melanotropic potency [2]: 1

Structure (SMILES): CCCCCC(=O)N[C@H]1CC(=O)NCCCC[C@@H](C(N)=O)NC(=O)[C@H](Cc2c[nH]c3ccccc23)NC(=O)[C@H](CCCN=C(N)N)NC(=O)[C@@H](Cc2ccccc2)NC(=O)[C@H](Cc2c[nH]cn2)NC1=O
- Melanotropic potency [4]: 100

Structure (SMILES): CCCCCCCCCCCCCCCC(=O)N[C@H]1CC(=O)NCCCC[C@@H](C(N)=O)NC(=O)[C@H](Cc2c[nH]c3ccccc23)NC(=O)[C@H](CCCN=C(N)N)NC(=O)[C@@H](Cc2ccccc2)NC(=O)[C@H](Cc2c[nH]cn2)NC1=O
- Melanotropic potency [4]: 100

Structure (SMILES): CCCCCCCCCCCCCC(=O)N[C@H]1CC(=O)NCCCC[C@@H](C(N)=O)NC(=O)[C@H](Cc2c[nH]c3ccccc23)NC(=O)[C@H](CCCN=C(N)N)NC(=O)[C@@H](Cc2ccccc2)NC(=O)[C@H](Cc2c[nH]cn2)NC1=O
- Melanotropic potency [5]: 100
